Test system: HBV cccDNA (HBeAg level) in HepDES19 cells
Experiment: Engineered HepDES19 primary screen assay (HBeAg as surrogate marker for cccDNA)
Format: cell-based
Settings: Hepatitis B virus, HepDES19, 120 h
From the text: The assay was employed to screen for novel cccDNA inhibitors. HepDES19 is a cccDNA-producing cell line. In this cell line, HBeAg in the cell culture supernatant as surrogate marker, as HBeAg production depends on cccDNA level and activity. HepDES19 is an engineered cell line which contains a 1.1 unit length HBV genome, and pgRNA transcription from the transgene is controlled by Tetracycline (Tet). In the absence of Tet, pgRNA transcription will be induced, but HBV e antigen (HBeAg) could not be produced from this pgRNA due to very short leader sequence before the HBeAg start codon and the start codon is disrupted. Only after cccDNA is formed, the missing leader sequence and start codon mutation would be restored from the 3′-terminal redundancy of pgRNA, and then HBeAg could be synthesized. Therefore, HBeAg could be used as a surrogate marker for cccDNA (Zhou, T. et al., Antiviral Res. (2006), 72(2), 116-124; Guo, H. et al., J. Virol. (2007), 81(22), 12472-12484).
HepDES19 cells were seeded at 2×10^6 cells per T150 flask and cultured with the culture medium (Dulbecco's Modified Eagle Medium: Nutrient Mixture F-12 [DMEM-F12, Gibco Cat. 11320-82], 10% Fetal Bovine Serum [FBS, Clontech Cat. 631101], 0.1 mM Non-Essential Amino Acids Solution [NEAA, Gibco Cat. 11140-050], 50 μg/mL Penicillin-Streptomycin [PS, Invitrogen Cat. 15140-163], 500 μg/mL Geneticin [G418, Invitrogen Cat. 10131-027]) containing 3 μg/mL Tet (Sigma, Cat. 87128) for 5 days. Cells were then seeded at 4×10^6 cells per T150 in the same culture medium as described above in the absence of Tet for 8 days. Cells were then harvested and frozen at density of 2×10^6 cells per mL. For compound testing, the frozen cells were thawed and seeded into 96-well plates at a density of 6×10^4 cells per well. At 24 hours after seeding, half log serial dilutions of compounds made with Dimethyl sulfoxide (DMSO, Sigma, Cat. D2650) were further diluted with the same culture medium as described above before they were added to the cells to reach desired final compound concentrations and 1% DMSO concentration. Plates were then incubated at 37° C. for another 5 days before measurement of HBeAg level and cell viability. Intracellular HBeAg level were measured with enzyme-linked immunosorbent assay (ELISA) kit (Shanghai Kehua Diagnostic Medical Products Co., Ltd). Cell viability was assessed using Cell Counting Kit-8 (Donjindo, Cat. CK04-20). IC50 values were derived from the dose-response curve using 4 parameter logistic curve fit method.
The compounds of the present invention were tested for their capacity to inhibit extracellular HBeAg level as described herein.

Structure (SMILES) | IC50
O=C(O)C1CC(OCCOc2ccc(CNc3cc(=O)c4cccc(Cl)c4o3)cc2)C1 (stereo not drawn) [Example 60, 3-(2-(4-(((8-chloro-4-oxo-chromen-2-yl)amino)methyl)phenoxy)ethoxy)cyclobutanecarboxylic Acid] | 30.8 µM
O=C(c1cc(=O)c2cccc(Cl)c2o1)N1CCc2cc(Br)ccc2C1 [Example 17, 2-(6-bromo-1,2,3,4-tetrahydroisoquinoline-2-carbonyl)-8-chloro-chromen-4-one] | 10.8 µM
O=C(O)COCCOc1cc(Cl)ccc1NC(=O)c1cc(=O)c2cc(Cl)cc(Cl)c2o1 [Example 22, 2-(2-(5-chloro-2-(6,8-dichloro-4-oxo-chromene-2-carboxamido)phenoxy)ethoxy)acetic Acid] | 11.9 µM
O=C(O)COc1cc(Cl)ccc1NC(=O)c1cc(=O)c2cccc(Cl)c2o1 [Example 20, 2-(5-chloro-2-(8-chloro-4-oxo-chromene-2-carboxamido)phenoxy)acetic Acid] | 50 µM
CC(NC(=O)c1cc(=O)c2cccc(Cl)c2o1)c1ccc(Br)cc1 (stereo not drawn) [Example 29, N-(1-(4-bromophenyl)ethyl)-8-chloro-4-oxo-chromene-2-carboxamide] | 24.9 µM
COC(=O)c1ccc(NC(=O)c2cc(=O)c3cccc(Cl)c3o2)c(C)c1 [Example 27, Methyl 4-(8-chloro-4-oxo-chromene-2-carboxamido)-3-methylbenzoate] | 23.4 µM
O=c1cc(N2CC3(CC(O)C3)C2)oc2c(Cl)cccc12 [Example 47, 8-chloro-2-(6-hydroxy-2-azaspiro[3.3]heptan-2-yl)chromen-4-one] | 10.7 µM
COc1ccc2c(c1)C(=O)N(c1cc(=O)c3cccc(Cl)c3o1)C2 [Example 55, 2-(8-chloro-4-oxo-chromen-2-yl)-6-methoxyisoindolin-1-one] | 16.7 µM
O=c1cc(-n2ccc(OCc3ccccc3)cc2=O)oc2c(Cl)cccc12 [Example 59, 4-(benzyloxy)-1-(8-chloro-4-oxo-chromen-2-yl)pyridin-2(1H)-one] | 24.4 µM
O=C(c1cc(=O)c2cccc(Cl)c2o1)N1Cc2cccc(Br)c2C1 [Example 31, 2-(4-bromoisoindoline-2-carbonyl)-8-chloro-chromen-4-one] | 26.8 µM
O=c1cc(N2C3CCC2CC(O)C3)oc2c(Cl)cccc12 (stereo not drawn) [Example 51, 8-chloro-2-(3-hydroxy-8-azabicyclo[3.2.1]octan-8-yl)-chromen-4-one] | 14.8 µM
COc1ccc2c(c1)CCN(c1cc(=O)c3cccc(Cl)c3o1)C2=O [Example 44, 2-(8-chloro-4-oxo-chromen-2-yl)-6-methoxy-3,4-dihydroisoquinolin-1-one] | 5.44 µM
COC(=O)c1cccc(C(=O)N2CC3(C2)CN(c2cc(=O)c4cccc(Cl)c4o2)C3)c1 [Example 63, Methyl 3-[6-(8-chloro-4-oxo-chromen-2-yl)-2,6-diazaspiro[3.3]heptane-2-carbonyl]benzoate] | 31.7 µM
COC(=O)c1ccc(C)c(NC(=O)c2cc(=O)c3cccc(Cl)c3o2)c1 [Example 21, Methyl 3-(8-chloro-4-oxo-chromene-2-carboxamido)-4-methylbenzoate] | 11 µM
O=c1cc(N2CCC(c3ccccc3)CC2)oc2c(Cl)cc(F)cc12 [Example 49, 8-chloro-6-fluoro-2-(4-phenylpiperidin-1-yl)-chromen-4-one] | 12.4 µM
O=c1cc(N2CCN(c3ccccc3)CC2)oc2c(Cl)cc(F)cc12 [Example 45, 8-chloro-6-fluoro-2-(4-phenylpiperazin-1-yl)-chromen-4-one] | 8.58 µM
COc1ccc2c(c1)C(=O)N(c1cc(=O)c3cccc(Cl)c3o1)CC2 [Example 65, 2-(8-chloro-4-oxo-chromen-2-yl)-7-methoxy-3,4-dihydroisoquinolin-1-one] | 37.6 µM
COc1ccc(CNc2cc(=O)c3cccc(Cl)c3o2)cc1 [Example 52, 8-chloro-2-((4-methoxybenzyl)amino)-chromen-4-one] | 15 µM

— patent publication US11993591B2, “Chromen-4-one derivatives for the treatment and prophylaxis of hepatitis B virus disease” (Hoffmann-La Roche Inc., priority 2018, dated 2024)
